The text below walks through data of article PMC11940194, “Synthesis, Antiproliferative Activity, and ADME Profiling of Novel Racemic and Optically Pure Aryl-Substituted Purines and Purine Bioisosteres” (Biomolecules, 2025).

The subject of data set [1] is colorectal carcinoma (HT-29) cells. The data set is described as follows: Antiproliferative MTT assay, HT-29. It counts as cell-based, human. To be noted: Homo sapiens, HT-29, 72 h, 72 h incubation, MTT; mean ± SD. An outline of the steps:
(§1)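 Human cancer lines and HFF-1 fibroblasts, cultured at 37 °C under 5% CO2 in serum-supplemented medium, were treated for 72 h over a 0.01–100 µM range. MTT gave growth rate, and 5-Fluorouracil served as reference.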

Data set [2] concerns hepatocellular carcinoma (HepG2) cells. The data set is described as follows: Antiproliferative MTT assay, HepG2. Format: cell-based, human. The following applies: for IC50: Homo sapiens, HepG2, 72 h, 72 h incubation, MTT, mean ± SD. The gist of the method: as §1
Data set [3] concerns pancreatic ductal adenocarcinoma (CFPAC-1) cells. Kind of data set: Antiproliferative MTT assay, CFPAC-1. It counts as cell-based, human. To be noted: for IC50: 72 h incubation, MTT, mean ± SD. An outline of the steps:
as §1

For data set [4], the system named is breast adenocarcinoma (MCF7) cells. The data set is described as follows: Antiproliferative MTT assay, MCF-7. It counts as cell-based, human. The following applies: for IC50: Homo sapiens, MCF7, 72 h incubation, MTT, mean ± SD. An outline of the steps:
as §1

Data set [5] in a line: Metabolic stability in mouse liver microsomes. It counts as in vitro ADME.
In data set [6] the test system is P-glycoprotein (human MDR1). Kind of data set: MDCKII-MDR1 permeability assay. The following applies: dog, MDCK-MDR1; for Papp A→B at 60 min, 10 µM / Papp B→A at 60 min, 10 µM: 37 °C; for efflux ratio at 60 min, 10 µM: <2 no efflux, >2 active efflux. Format: in vitro ADME, canine cells with over-expressed human MDR1 gene. The gist of the method: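 Bidirectional transport across MDCKII cells overexpressing human MDR1, compounds 10 µM (1% DMSO) for 60 min at 37 °C, with and without 2 µM elacridar. Monolayer integrity checked by Lucifer yellow; compound concentrations quantified by LC-MS/MS (MRM).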

Data set [7] has as its system normal skin fibroblasts (HFF-1). The data set is described as follows: Cytotoxicity MTT assay, normal skin fibroblasts. It counts as cell-based, human. The following applies: Homo sapiens, HFF-1, 72 h, 72 h incubation, mean ± SD. The gist of the method:
as §1

The structures appear in SMILES notation.

Take `OCC(c1ccc(C(F)(F)F)cc1)n1cc(Cn2ccc3c(Cl)ncnc32)nn1` (centres unmarked) [Compound 45a, 4-Chloro-7-((1-(2-hydroxy-1-(4-(trifluoromethyl)phenyl)ethyl)-1H-1,2,3-triazol-4-yl)methyl)-7H-pyrrolo[2,3-d]pyrimidine]: the concentration for half-maximal inhibition (IC50) is 26 ± 1.2 µM in data set [1]; 28 ± 0.5 µM in data set [2]; 1 ± 0.7 µM in data set [3]; 1 to 8 µM in data set [3] (Homo sapiens, CFPAC-1, 72 h); 0.5 ± 0.1 µM in data set [4]; 20 ± 4.7 µM in data set [7]. Further, the “SI (CFPAC-1)” value in data set [3] (SI = [IC50 HFF]/[IC50 CFPAC-1]) stood at 20.0. Also, the “SI (MCF-7)” value in data set [4] (SI = [IC50 HFF]/[IC50 MCF-7]) was determined as 40. Further, the “Clearance Values (CL)” value in data set [5] (predicted in vivo hepatic clearance from mouse liver microsome t1/2, 1 µM compound) is on record as 54%. Moreover, the Papp A→B at 60 min, 10 µM in data set [6] was found to be 7.6 ×10⁻⁶ cm/s. The same compound showed a Papp B→A at 60 min, 10 µM in data set [6] of 66.4 ×10⁻⁶ cm/s. In addition, in data set [6], the efflux ratio at 60 min, 10 µM came out at 8.8.

In the case of `OC(Cn1cc(Cn2cnc3c(Cl)nccc32)nn1)c1ccc(Br)cc1` (centres unmarked) [Compound 49b, 4-Chloro-1-((1-(2-hydroxy-2-(4-bromophenyl)ethyl)-1H-1,2,3-triazol-4-yl)methyl)-1H-imidazo[4,5-c]pyridine], the IC50 in data set [1] worked out at 10 ± 3.2 µM; in data set [2], 4 µM; in data set [3] (Homo sapiens, CFPAC-1, 72 h) it was 21 ± 0.7 µM; in data set [4], 46 µM; in data set [7], 21 ± 5.8 µM. In data set [2] (SI = [IC50 HFF]/[IC50 HepG2]), the “SI (HepG2)” value was found to be 5.3. Besides, the “Clearance Class.” value in data set [5] (mouse liver microsomes) is given as “LOW (<30% low)”. In data set [6], this compound registered a Papp A→B at 60 min, 10 µM of no more than 2 ×10⁻⁶ cm/s. The compound further displayed a Papp B→A at 60 min, 10 µM in data set [6] of 36.9 ×10⁻⁶ cm/s. For the same compound, the efflux ratio at 60 min, 10 µM in data set [6] was found to be 23.3. This compound gave a Papp at 60 min, 10 µM in data set [6] (permeability class) of no more than 2 ×10⁻⁶ cm/s.
